Data as given in BindingDB's records for patent US20250026748 (Repare Therapeutics, 2025).

molecular target: DNA polymerase theta (Homo sapiens, UniProt O75417); assay: Polθ ATPase Enzymatic Assay (0.5 nM Enzyme Concentration)
Method: Following pre-incubation with inhibitors, DNA (Fork C) at 20 nM and ATP at 100 μM are added to start the reaction. Enzymatic reaction proceeds at rt for 180 min ATP consumption is measured using the ADP-Glo assay from Promega.

DNA polymerase theta, sequence (O75417 whole entry): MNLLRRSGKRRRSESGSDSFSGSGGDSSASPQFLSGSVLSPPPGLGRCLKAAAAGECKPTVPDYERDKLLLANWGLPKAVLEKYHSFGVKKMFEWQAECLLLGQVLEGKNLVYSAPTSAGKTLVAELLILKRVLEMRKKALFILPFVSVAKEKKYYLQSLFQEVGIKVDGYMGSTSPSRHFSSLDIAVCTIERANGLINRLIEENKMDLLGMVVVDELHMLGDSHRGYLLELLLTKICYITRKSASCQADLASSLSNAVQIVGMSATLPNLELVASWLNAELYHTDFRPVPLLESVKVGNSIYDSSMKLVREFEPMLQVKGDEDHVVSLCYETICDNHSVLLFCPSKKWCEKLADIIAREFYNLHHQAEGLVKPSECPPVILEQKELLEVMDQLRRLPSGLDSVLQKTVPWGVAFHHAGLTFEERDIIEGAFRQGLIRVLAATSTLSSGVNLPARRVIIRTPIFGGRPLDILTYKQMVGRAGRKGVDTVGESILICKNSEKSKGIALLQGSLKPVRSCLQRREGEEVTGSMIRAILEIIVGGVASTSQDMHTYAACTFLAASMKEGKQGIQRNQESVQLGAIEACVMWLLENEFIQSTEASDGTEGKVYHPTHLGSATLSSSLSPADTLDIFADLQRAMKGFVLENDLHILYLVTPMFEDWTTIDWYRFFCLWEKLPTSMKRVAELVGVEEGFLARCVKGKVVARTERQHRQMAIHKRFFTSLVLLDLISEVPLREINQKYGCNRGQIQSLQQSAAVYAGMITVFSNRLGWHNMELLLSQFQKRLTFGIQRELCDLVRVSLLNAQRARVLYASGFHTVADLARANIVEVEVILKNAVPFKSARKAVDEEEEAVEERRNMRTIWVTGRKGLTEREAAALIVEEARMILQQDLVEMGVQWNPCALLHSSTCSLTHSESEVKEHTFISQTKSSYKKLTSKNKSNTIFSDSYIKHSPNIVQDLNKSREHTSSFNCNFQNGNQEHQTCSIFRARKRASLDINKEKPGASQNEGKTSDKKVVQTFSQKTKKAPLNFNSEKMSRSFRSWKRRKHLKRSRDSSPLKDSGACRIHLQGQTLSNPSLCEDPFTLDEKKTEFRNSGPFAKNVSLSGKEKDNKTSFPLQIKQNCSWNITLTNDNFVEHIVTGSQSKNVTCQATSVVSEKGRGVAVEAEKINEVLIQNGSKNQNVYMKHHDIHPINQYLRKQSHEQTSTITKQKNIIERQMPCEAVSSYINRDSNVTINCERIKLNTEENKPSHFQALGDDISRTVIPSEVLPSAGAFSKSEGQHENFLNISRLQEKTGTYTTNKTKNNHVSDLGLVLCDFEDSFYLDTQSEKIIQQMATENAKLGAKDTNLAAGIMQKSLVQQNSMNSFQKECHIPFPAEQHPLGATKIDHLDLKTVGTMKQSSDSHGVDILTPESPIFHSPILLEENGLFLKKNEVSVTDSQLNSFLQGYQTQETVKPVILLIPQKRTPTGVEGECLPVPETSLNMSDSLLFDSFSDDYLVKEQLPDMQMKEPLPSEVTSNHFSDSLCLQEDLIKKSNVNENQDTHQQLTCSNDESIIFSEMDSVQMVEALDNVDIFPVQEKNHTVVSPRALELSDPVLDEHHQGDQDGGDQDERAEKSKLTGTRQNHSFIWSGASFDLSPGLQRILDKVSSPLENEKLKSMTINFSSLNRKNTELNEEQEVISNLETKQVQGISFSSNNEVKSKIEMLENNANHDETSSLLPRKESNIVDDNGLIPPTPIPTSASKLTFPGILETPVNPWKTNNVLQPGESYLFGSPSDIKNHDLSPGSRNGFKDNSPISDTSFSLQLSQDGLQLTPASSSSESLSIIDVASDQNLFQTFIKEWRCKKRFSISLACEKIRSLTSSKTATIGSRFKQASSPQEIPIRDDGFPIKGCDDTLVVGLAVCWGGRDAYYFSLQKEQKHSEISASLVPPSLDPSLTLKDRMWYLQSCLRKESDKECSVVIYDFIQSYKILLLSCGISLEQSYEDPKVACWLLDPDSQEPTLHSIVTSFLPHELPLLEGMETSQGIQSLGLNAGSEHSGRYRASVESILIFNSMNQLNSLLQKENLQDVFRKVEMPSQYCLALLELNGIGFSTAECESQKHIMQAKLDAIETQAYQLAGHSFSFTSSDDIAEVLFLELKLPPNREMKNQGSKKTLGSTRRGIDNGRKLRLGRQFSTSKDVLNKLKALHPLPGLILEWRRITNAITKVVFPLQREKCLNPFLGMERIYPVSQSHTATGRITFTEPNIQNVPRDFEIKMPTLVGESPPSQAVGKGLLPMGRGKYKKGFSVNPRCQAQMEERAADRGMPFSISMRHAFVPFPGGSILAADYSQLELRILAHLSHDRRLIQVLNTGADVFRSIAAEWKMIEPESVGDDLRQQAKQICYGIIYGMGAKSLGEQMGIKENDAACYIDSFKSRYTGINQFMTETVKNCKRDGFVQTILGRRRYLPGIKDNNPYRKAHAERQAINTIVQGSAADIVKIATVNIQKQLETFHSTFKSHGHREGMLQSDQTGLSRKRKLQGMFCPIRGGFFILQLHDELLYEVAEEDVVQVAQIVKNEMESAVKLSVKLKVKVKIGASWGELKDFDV

| IC50 [nM] | SMILES |
| --- | --- |
| 1.1 | COc1cnc(Cl)cc1-c1cnccc1C(=O)Nc1ncc(C#CC2CC2)s1 [US20250026748, Compound 38] |
| 0.37 | COc1ccc(Cl)cc1-c1cnccc1C(=O)Nc1nnc(C#CC2CC2)s1 [US20250026748, Compound 57] |
| 0.38 | COc1cnc(Cl)cc1-c1cc(-c2nnc(C)o2)ccc1C(=O)Nc1nnc(C#CC2CC2)s1 [US20250026748, Compound 305] |

The remaining lines, values behind:

| SMILES | IC50 [nM] |
| --- | --- |
| COc1ccc(Cl)cc1-c1cn(Cc2nccs2)c(=O)cc1C(=O)Nc1nnc(C#CC2CC2)s1 [US20250026748, Compound 63] | 1.9 |
| COc1cnc(C(F)F)cc1-c1nc(-c2ccn(C)n2)cnc1C(=O)Nc1nnc(C#CC2CC2)s1 [US20250026748, Compound 140] | 38 |
| COc1ccc(C(F)(F)F)cc1-c1cn(C)c(=O)cc1C(=O)Nc1nnc(C#CC2CCOC2)s1 (configuration not stated) [US20250026748, Compound 340] | 12 |
| COc1cnc(C(F)F)cc1-c1cc(-c2ccn(C)n2)ncc1C(=O)Nc1nnc(C#Cc2cc(C)[nH]n2)s1 [US20250026748, Compound 370] | 2.9 |
